Assay results taken from article PMC9881724, “Rational design of potent ultrashort antimicrobial peptides with programmable assembly into nanostructured hydrogels” (Frontiers in Chemistry, 2023).
Converted amounts (≈) assume the structure as drawn. Read-outs that look alike come from different tables or passages of the source. Blank lines part the entries; values can stand above or below the molecule they belong to. Residues, ends and D or L forms follow the SMILES beside them. No end group written: not given here. *: point of attachment. Fmoc = O=C(OCC1c2ccccc2-c2ccccc21)*

Tests used:
[1] = test system: S. aureus ATCC BAA-1756 (methicillin resistant); type: cell-based
Excerpt: (§1) Indolicidin (sequence: ILPWKWPWWPWRR-NH2, molecular weight: 1,906.3 g/mol) and FMOC-WWRR-NH2 (molecular weight: 924.1) were obtained from ChemPep (USA) as lyophilized powder and acetate salts with a purity >95%. Ethanol and Congo red were purchased from Sigma-Aldrich (Australia). Sodium chloride was purchased from Alfa Aesar (United Kingdom). The negative staining agent phosphotungstic acid was purchased from Proscitech (Australia). A Milipore filter system was utilized to obtain Milli-Q water. BD Difco Mueller Hinton Broth (MHB) and Sabouraud broth (SB) were purchased from Cell biosciences (Australia). Strains: E. coli NCTC 10418, P. aeruginosa ATCC 9721, E. faecalis ATCC 19433, S. aureus ATCC 25923, S. aureus ATCC BAA-1756 (methicillin resistant), Streptococcus pneumoniae ATCC 49619, Candida albicans ATCC 10231 and Candida auris DSM 21092 (Fluconazole resistant) were provided by the RMIT microbial culture collection. Bacterial strains were stored in 50% glycerol at −20 and −80°C.
(§2) Minimal inhibitory concentration (MIC) assays were performed following a standard broth dilution procedure ([Wiegand et al., 2008]) in which bacteria were grown in MHB and fungal in SB overnight. The overnight bacterial suspension was adjusted to 10^6 CFU/ml in broth according to MacFarlane standard. Bacterial solutions were mixed in 96-well plates with the peptide solution to reach final concentrations of peptides ranging from 1,082 to 2 μM, including inhibition control (Indolicidin), growth control, and sterility control. Within each MIC experiment, each peptide was tested in triplicate across this concentration range and repeated on 3 independent days. Media and glassware were sterilized at 120°C for 1 h with an autoclave prior to all bioassays.

[2] = test system: Candida albicans ATCC 10231; type: cell-based
Excerpt: as §1, §2

[3] = test system: Candida auris DSM 21092 (Fluconazole resistant); type: cell-based
Excerpt: as §1, §2

[4] = test system: Streptococcus pneumoniae ATCC 49619; type: cell-based
Excerpt: as §1, §2

E. faecalis ATCC 19433 = type: cell-based
Excerpt: as §1, §2

E. coli NCTC 10418 = type: cell-based
Excerpt: as §1, §2

P. aeruginosa ATCC 9721 = type: cell-based
Excerpt: as §1, §2

E. faecium = type: cell-based
Method: as §2

[5] = Peptide assembly state from ATR-FTIR arginine side-chain vibrations; type: physicochemical; details: ATR-FTIR 25°C
Method: (§3) The peptides were prepared by mixing the lyophilized peptide directly with type 1 water, vortexed for a few seconds to obtain an isotropic solution and stored at 4°C–5°C in between experiments.
Data was recorded at 25°C using a Tensor-II spectrometer (Bruker, Germany) equipped with a Bio-ATR attachment (Bruker, Germany) by directly depositing the samples on the ATR crystal as previous reported by our group ([Dharmadana et al., 2019]). Spectra were collected over 32 scans within 4,000–400 cm^−1 wavenumber range at a resolution of 4 cm^−1. Associated water signal was subtracted from the resulting spectra, and secondary derivatives were calculated using OPUS software (Bruker, Germany).

S. aureus ATCC 25923 = type: cell-based; details: ATCC 25923, 1 h
Excerpt: as §1, §2

[6] = Self-assembly and hydrogelation in water (electron microscopy, rheology, observation); type: physicochemical
Method: as §3
Carbon-coated grids (EMSCF200H-CU-TH, ProSciTech) were glow discharged to render them hydrophilic. A 1–5 μl aliquot of sample was applied to an upturned grid held in anti-capillary forceps, over moist filter paper, and left for 5 min over moistened filter paper to adsorb. Excess liquid was then removed with filter paper, the grid was then inverted onto a drop of 2% PTA stain, pH 6.9 on Parafilm, for 1 min. […] Images were recorded using a FEI Eagle 4 k × 4 k CCD camera and AnalySIS v3.2 camera control software (Olympus).
A laboratory-built humidity-controlled vitrification system was used to prepare the samples for Cryo-TEM. […] Images were recorded using a FEI Eagle 4 k × 4 k CCD camera at a range of magnifications using AnalySIS v3.2 camera control software (Olympus).
Rheology was undertaken on a calibrated rheometer (Anton Paar MCR 301, Anton Paar Pty. Ltd. Austria) fitted with a 15 mm cone plate fixture with a cone angle of 1° (CP15-1, Anton Paar Pty. Ltd. Austria). […] All measurements were carried out in triplicate with the mean and standard deviation shown, calculated and plotted in GraphPad Prism.

E. coli = assay: Fluorescence assisted cell sorting (FACS) live/dead assay; type: cell-based; details: overnight 36-37°C, SYTO 9/propidium iodide
Method: (§4) FACS assay was performed following the LIVE/DEAD™ BacLight™ Bacterial Viability Kit (L7012) instructions and stablished procedures ([Berney et al., 2007]; [Robertson et al., 2019]), in which bacteria were grown in Mueller Hinton Broth and fungal in Sabouraud Broth overnight to a late–log phase. Then, 900 μl of the cell suspension was added to 100 μl of five different concentrations of peptides solution and incubated overnight at 36°C–37°C. On the next day, the suspension was centrifuged at 10,000 × g for 10 min and the supernatant fraction was removed from the samples. The pellets were resuspended with 1 ml of PBS buffer and incubated at room temperature for 1 h, mixing every 15 min. The sample was centrifuged at 10,000 × g for 10 min, the supernatant removed followed by the resuspension of the pellet in 1 ml of PBS. The washing steps were repeated twice. To perform the staining of the cells, equal volumes of SYTO® 9 and propidium iodide were combined in a microfuge tube and 3 µl of the dye mixture was added to each microbial suspension. The sample was incubated at room temperature in the dark for 15 min. The evaluation of cell viability was performed through the calculation of the red to green fluorescence ratio to determine the proportion of live cells in a sample.

[7] = test system: C. auris Fluconazole resistant; assay: as above; type: cell-based; details: overnight 36-37°C, SYTO 9/propidium iodide
Method: as §4

[8] = test system: S. aureus Methicillin resistant; assay: as above; type: cell-based; details: overnight 36-37°C, SYTO 9/propidium iodide
Method: as §4

[9] = type: physicochemical
Method: as §3

[10] = broth dilution in Sabouraud broth, peptide 1,082 to 2 μM, triplicate on 3 independent days
[11] = broth dilution in MHB, 10^6 CFU/ml, peptide 1,082 to 2 μM, triplicate on 3 independent days

Molecule: CC[C@H](C)[C@H](N)C(=O)N[C@@H](CC(C)C)C(=O)N1CCC[C@H]1C(=O)N[C@@H](Cc1c[nH]c2ccccc12)C(=O)N[C@@H](CCCCN)C(=O)N[C@@H](Cc1c[nH]c2ccccc12)C(=O)N1CCC[C@H]1C(=O)N[C@@H](Cc1c[nH]c2ccccc12)C(=O)N[C@@H](Cc1c[nH]c2ccccc12)C(=O)N1CCC[C@H]1C(=O)N[C@@H](Cc1c[nH]c2ccccc12)C(=O)N[C@@H](CCCNC(=N)N)C(=O)N[C@@H](CCCNC(=N)N)C(N)=O [Indolicidin, reference compound]
MIC S. aureus Methicillin resistant ([1]; second value of cell S. aureus/Methicillin resistant, broth dilution in MHB, 10^6 CFU/ml, peptide 1,082 to 2 μM, triplicate on 3 independent days): 33 µM (≈ 62.9 µg/mL) | MIC C. albicans [2, 10]: 4 µM (≈ 7.63 µg/mL) | MIC C. auris Fluconazole resistant [3, 10]: 16 µM (≈ 30.5 µg/mL) | MIC S. pneumoniae [4, 11]: 16 µM (≈ 30.5 µg/mL) | MIC E. faecalis (E. faecalis ATCC 19433; [11]): 33 µM (≈ 62.9 µg/mL) | MIC E. coli (E. coli NCTC 10418; [11]): 16 µM (≈ 30.5 µg/mL) | MIC P. aeruginosa (P. aeruginosa ATCC 9721; [11]): 33 µM (≈ 62.9 µg/mL) | MIC E. faecium (E. faecium; [11]): 33 µM (≈ 62.9 µg/mL)

MIC C. albicans ([2]; ATCC 10231, 1 h): 78 µM | MIC C. auris Fluconazole resistant ([3]; DSM 21092, 1 h): 313 µM | MIC E. coli (E. coli NCTC 10418; NCTC 10418, 1 h): 313 µM | MIC P. aeruginosa (P. aeruginosa ATCC 9721; ATCC 9721, 1 h): 313 µM
Molecule: WPWRR-NH2 [Indolicidin C-terminus, WPWRR-NH2, reference compound]

Interpretation for peptide assembly according to MD ([5]; 1 % wt in water, 30 days after mixing): monomer/globular oligomer | Interpretation for peptide assembly according to MD ([5]; 1 % wt in water, time after mixing 0): monomer/globular oligomer | Interpretation for peptide assembly according to MD ([5]; 5 % wt in water, 30 days after mixing): monomer/globular oligomer | Interpretation for peptide assembly according to MD ([5]; 5 % wt in water, time after mixing 0): monomer/globular oligomer | Interpretation for peptide assembly according to MD ([5]; 10 % wt in water, 30 days after mixing): monomer/globular oligomer | Interpretation for peptide assembly according to MD ([5]; 10 % wt in water, time after mixing 0): monomer/globular oligomer | MIC S. aureus Methicillin resistant ([1]; ATCC BAA-1756, 1 h): 61 µM (≈ 62.3 µg/mL) | MIC C. albicans ([2]; ATCC 10231, 1 h): 15 µM (≈ 15.3 µg/mL) | MIC C. auris Fluconazole resistant ([3]; DSM 21092, 1 h): 31 µM (≈ 31.7 µg/mL) | MIC S. pneumoniae ([4]; ATCC 49619, 1 h): 31 µM (≈ 31.7 µg/mL) | MIC E. faecalis (E. faecalis ATCC 19433; ATCC 19433, 1 h): 61 µM (≈ 62.3 µg/mL) | MIC S. aureus (S. aureus ATCC 25923): 31 µM (≈ 31.7 µg/mL) | MIC E. coli (E. coli NCTC 10418; NCTC 10418, 1 h): 122 µM (≈ 125 µg/mL) | MIC P. aeruginosa (P. aeruginosa ATCC 9721; ATCC 9721, 1 h): 61 µM (≈ 62.3 µg/mL) | Nanostructures imaged by electron microscopy ([6]; 10% wt in water, 1 month incubation, in coexistence with globular oligomers): nanoribbons | State of aqueous samples (rheology summary) ([6]; peptide in water, oscillatory rheology G'/G''): colloidal solutions of low viscosity | MIC E. faecium (E. faecium; 1 h): 61 µM (≈ 62.3 µg/mL)
Molecule: N=C(N)NCCC[C@H](NC(=O)[C@H](CCCNC(=N)N)NC(=O)[C@H](Cc1c[nH]c2ccccc12)NC(=O)[C@@H]1CCCN1C(=O)[C@H](Cc1c[nH]c2ccccc12)NC(=O)OCC1c2ccccc2-c2ccccc21)C(N)=O [P-Priscilicidin, Fmoc-WPWRR-NH2] (Fmoc-WPWRR-NH2)
Dead % (E. coli; 12 µM peptide): 2% | Live % (E. coli; 12 µM peptide): 93% | Dead % (E. coli; 24 µM peptide): 33% | Live % (E. coli; 24 µM peptide): 57% | Dead % (E. coli; 49 µM peptide): 48% | Live % (E. coli; 49 µM peptide): 33% | Dead % (E. coli; 98 µM peptide): 44% | Live % (E. coli; 98 µM peptide): 35% | Dead % (E. coli; 196 µM peptide): 89% | Live % (E. coli; 196 µM peptide): 2% | FACS minimum concentration showing over 90% dead microbes, E. coli (E. coli): 196 µM | Dead % ([7]; 12 µM peptide): 33% | Live % ([7]; 12 µM peptide): 67% | Dead % ([7]; 24 µM peptide): 95% | Live % ([7]; 24 µM peptide): 4% | Dead % ([7]; 49 µM peptide): 98% | Live % ([7]; 49 µM peptide): 2% | Dead % ([7]; 98 µM peptide): 98% | Live % ([7]; 98 µM peptide): 1% | Dead % ([7]; 196 µM peptide): 98% | Live % ([7]; 196 µM peptide): 2% | Dead % ([8]; 12 µM peptide): 5% | Live % ([8]; 12 µM peptide): 95% | Dead % ([8]; 24 µM peptide): 7% | Live % ([8]; 24 µM peptide): 95% | Dead % ([8]; 98 µM peptide): 83% | Live % ([8]; 98 µM peptide): 19% | Dead % ([8]; 196 µM peptide): 97% | Live % ([8]; 196 µM peptide): 4% | FACS minimum concentration showing over 90% dead microbes, S. aureus Methicillin resistant [8]: 196 µM

MIC S. aureus Methicillin resistant ([1]; ATCC BAA-1756, 1 h): 34 µM (≈ 31.4 µg/mL) | MIC C. albicans ([2]; ATCC 10231, 1 h): 8 µM (≈ 7.39 µg/mL) | MIC C. auris Fluconazole resistant ([3]; DSM 21092, 1 h): 17 µM (≈ 15.7 µg/mL) | MIC S. pneumoniae ([4]; ATCC 49619, 1 h): 17 µM (≈ 15.7 µg/mL) | MIC E. faecalis (E. faecalis ATCC 19433; ATCC 19433, 1 h): 68 µM (≈ 62.8 µg/mL) | MIC S. aureus (S. aureus ATCC 25923): 17 µM (≈ 15.7 µg/mL) | MIC E. coli (E. coli NCTC 10418; NCTC 10418, 1 h): 68 µM (≈ 62.8 µg/mL) | MIC P. aeruginosa (P. aeruginosa ATCC 9721; ATCC 9721, 1 h): 68 µM (≈ 62.8 µg/mL) | Concentration easily solubilised in pure water [9]: at least 10 % w/w | MIC E. faecium (E. faecium; 1 h): 34 µM (≈ 31.4 µg/mL)
Molecule: N=C(N)NCCC[C@H](NC(=O)[C@H](CCCNC(=N)N)NC(=O)[C@H](Cc1c[nH]c2ccccc12)NC(=O)[C@H](Cc1c[nH]c2ccccc12)NC(=O)OCC1c2ccccc2-c2ccccc21)C(N)=O [Priscilicidin, Fmoc-WWRR-NH2] (Fmoc-WWRR-NH2)
